Measured values published in patent publication US20260158009A1 (GENZYME CORPORATION, priority 2023, published 2026).

Assays:
[1] = target: T1, hRIPK1 (aa 1-375) fusion protein (Homo sapiens, UniProt Q13546); test: ADP-Glo kinase assay: catalytic activity of RIPK1 (autophosphorylation, conversion of ATP to ADP); assay type: biochemical
T1 construct: hRIPK1 (aa 1-375) fusion protein
T1 sequence (Q13546 1-375): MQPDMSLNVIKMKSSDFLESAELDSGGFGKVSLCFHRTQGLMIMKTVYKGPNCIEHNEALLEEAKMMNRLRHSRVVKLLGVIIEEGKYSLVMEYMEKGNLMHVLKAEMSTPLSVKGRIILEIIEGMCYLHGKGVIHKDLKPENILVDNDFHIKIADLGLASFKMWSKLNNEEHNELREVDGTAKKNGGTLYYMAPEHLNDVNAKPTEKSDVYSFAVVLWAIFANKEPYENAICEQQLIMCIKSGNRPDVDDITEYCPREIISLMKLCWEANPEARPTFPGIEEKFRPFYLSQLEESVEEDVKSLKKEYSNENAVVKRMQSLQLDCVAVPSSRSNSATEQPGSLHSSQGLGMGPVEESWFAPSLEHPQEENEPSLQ
How it was run: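 The readout was ADP-Glo luminescence after a 240 min rt autophosphorylation reaction with 50 μM ATP, following 30 min preincubation of 3.6 μg/ml hRIPK1 (aa 1-375) fusion with compound at 33300-1.69 nM final in 1% DMSO. Values came from Levenberg-Marquardt nonlinear fits.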

U937 cells = test: Cellular assay in U937 cells: activity of RIPK1 inhibitors on TNFα/zVAD.fmk-induced cell death (necroptosis), CellTiter 96 AQueous (MTS) readout; assay type: cell-based; settings: Homo sapiens, U-937
How it was run: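 Necroptosis was measured by viable-cell MTS reduction (4 h, absorbance 490 nm) after overnight (18–24 h) 37° C culture. Cell suspensions of U937 cells carried TNFα (100 ng/ml) plus zVAD.fmk (50 μM) before compound was added. A 10-point curve (10 μM–0.26 nM or 1 μM–0.07 nM) was run in duplicate, normalised to the control lacking TNFα/zVAD.fmk.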

SMILES	IC50 [1] [nM]	IC50 (U937 cells) [nM]
NC(=O)c1cnc2cnn(C[C@H]3CC[C@H](C(=O)N4OCC[C@H]4c4cc(F)cc(F)c4)CC3)c2c1 [compound 79, trans-1-((4-((S)-3-(3,5-difluorophenyl)isoxazolidine-2-carbonyl)cyclohexyl)methyl)-1H-pyrazolo[4,3-b]pyridine-6-carboxamide]	22	13
Cc1nccn1-c1cc(F)cc(C[C@H]2CC[C@H](C(=O)N3OCC[C@H]3c3cnccn3)CC2)c1 [compound 209, trans-[4-[[3-fluoro-5-(2-methylimidazol-1-yl)phenyl]methyl]cyclohexyl]-[(3S)-3-pyrazin-2-ylisoxazolidin-2-yl]methanone]	22	54
Cc1nc2ccc(C[C@H]3CC[C@H](C(=O)N4OCC[C@H]4c4ccc(F)c(F)c4)CC3)cn2n1 [compound 261, trans-[(3S)-3-(3,4-difluorophenyl)isoxazolidin-2-yl]-[4-[(2-methyl-[1,2,4]triazolo[1,5-a]pyridin-6-yl)methyl]cyclohexyl]methanone]	23	17
Cc1ccc([C@@H]2CCON2C(=O)[C@H]2CC[C@H](Cc3ccn4nc(C)nc4c3)CC2)cn1 [compound 373, trans-[(S)-3-(6-Methyl-pyridin-3-yl)-isoxazolidin-2-yl]-[4-(2-methyl-[1,2,4]triazolo[1,5-a]pyridin-7-ylmethyl)-cyclohexyl]-methanone]	110	78
N#Cc1cc(F)cc([C@@H]2CCON2C(=O)[C@H]2CC[C@H](Cn3cnc4cc(F)ccc43)CC2)c1 [compound 48, trans-3-fluoro-5-((S)-2-(4-((5-fluoro-1H-benzo[d]imidazol-1-yl)methyl)cyclohexane-1-carbonyl)isoxazolidin-3-yl)benzonitrile]	25	15
Cc1ccc([C@@H]2CCON2C(=O)[C@H]2CC[C@H](Cn3ncc4cc(C#N)c(F)cc43)CC2)cn1 [compound 298, 6-fluoro-1-[[trans-4-[(3S)-3-(6-methyl-3-pyridyl)isoxazolidine-2-carbonyl]cyclohexyl]methyl]indazole-5-carbonitrile]	20	6
N#Cc1cc(F)cc([C@@H]2CCON2C(=O)[C@H]2CC[C@H](Cn3cc4cc(C#N)ccc4n3)CC2)c1 [compound 59, trans-2-((4-((S)-3-(3-cyano-5-fluorophenyl)isoxazolidine-2-carbonyl)cyclohexyl)methyl)-2H-indazole-5-carbonitrile]	30	166
Cc1nnc2ccc(CC3CCC(C(=O)N4OCC[C@H]4c4cnccn4)CC3)c(C)n12 (stereo partly drawn) [compound 358, [4-[(3,5-dimethyl-[1,2,4]triazolo[4,3-a]pyridin-6-yl)methyl]cyclohexyl]-[(3S)-3-pyrazin-2-yl-1,2-oxazolidin-2-yl]methanone]	31	481
N#Cc1cc(F)cc([C@@H]2CCON2C(=O)[C@H]2CC[C@H](Cn3cnc4c(F)cc(C(N)=O)cc43)CC2)c1 [compound 80, trans-1-((4-((S)-3-(3-cyano-5-fluorophenyl)isoxazolidine-2-carbonyl)cyclohexyl)methyl)-4-fluoro-1H-benzo[d]imidazole-6-carboxamide]	60	745
N#Cc1cnc2ccn(C[C@H]3CC[C@H](C(=O)N4OCC[C@H]4c4cnccn4)CC3)c2c1 [compound 134, trans-1-[[4-[(3S)-3-pyrazin-2-ylisoxazolidine-2-carbonyl]cyclohexyl]methyl]pyrrolo[3,2-b]pyridine-6-carbonitrile]	27	25
N#Cc1cc(F)cc([C@@H]2CCON2C(=O)[C@H]2CC[C@H](Cn3ncc4cc(F)ccc43)CC2)c1 [compound 54, trans-3-fluoro-5-((S)-2-(4-((5-fluoro-1H-indazol-1-yl)methyl)cyclohexane-1-carbonyl)isoxazolidin-3-yl)benzonitrile]	21	6
Cc1ccc([C@@H]2CCON2C(=O)[C@H]2CC[C@H](Cc3ccc4c(c3)C(=O)NC4)CC2)cn1 [compound 157, trans-6-[[4-[(3S)-3-(6-methyl-3-pyridyl)isoxazolidine-2-carbonyl]cyclohexyl]methyl]isoindolin-1-one]	33	396
Cc1nc2cc(F)ccc2n1C[C@H]1CC[C@H](C(=O)N2OCC[C@H]2c2cc(F)cc(C#N)c2)CC1 [compound 50, trans-3-fluoro-5-((S)-2-(4-((5-fluoro-2-methyl-1H-benzo[d]imidazol-1-yl)methyl)cyclohexane-1-carbonyl)isoxazolidin-3-yl)benzonitrile]	27	29
Cc1cc(C[C@H]2CC[C@H](C(=O)N3OCC[C@H]3c3coc(C)n3)CC2)c(C)cn1 [compound 377, trans-[4-[(2,5-dimethylpyridin-4-yl)methyl]cyclohexyl]-[(3S)-3-(2-methyl-1,3-oxazol-4-yl)-1,2-oxazolidin-2-yl]methanone]	35	36
Cc1cncc([C@@H]2CCON2C(=O)[C@H]2CC[C@H](Cc3cc(F)c4nc(C)nn4c3)CC2)c1 [compound 333, trans-[4-[(8-fluoro-2-methyl-[1,2,4]triazolo[1,5-a]333yrdine-6-yl)methyl]cyclohexyl]-[(3S)-3-(5-methylpyridin-3-yl)-1,2-oxazolidin-2-yl]methanone]	30	55
Cc1ccc([C@@H]2CCON2C(=O)[C@H]2CC[C@H](Cc3ccc4nc(N)nn4c3)CC2)cn1 [compound 391, [4-[(2-amino-[1,2,4]triazolo[1,5-a]pyridin-6-yl)methyl]cyclohexyl]-[(3S)-3-(6-methylpyridin-3-yl)-1,2-oxazolidin-2-yl]methanone]	63	64
Cc1ncc(C[C@H]2CC[C@H](C(=O)N3OCC[C@H]3c3cnccn3)CC2)cn1 [compound 346, trans-[4-[(2-methylpyrimidin-5-yl)methyl]cyclohexyl]-[(3S)-3-pyrazin-2-yl-1,2-oxazolidin-2-yl]methanone]	83	70
N#Cc1cc(F)cc([C@@H]2CCON2C(=O)[C@H]2CC[C@H](Cc3ccc4c(c3)C(=O)NC4)CC2)c1 [compound 144, trans-3-fluoro-5-[(3S)-2-[4-[(3-oxoisoindolin-5-yl)methyl]cyclohexanecarbonyl]isoxazolidin-3-yl]benzonitrile]	22	3

Continued, in another order:

IC50 [1] [nM]	SMILES	IC50 (U937 cells) [nM]
15	N#Cc1ccc2c(cnn2C[C@H]2CC[C@H](C(=O)N3OCC[C@H]3c3cc(F)cc(F)c3)CC2)c1 [compound 52, trans-1-((4-((S)-3-(3,5-difluorophenyl)isoxazolidine-2-carbonyl)cyclohexyl)methyl)-1H-indazole-5-carbonitrile]	2
20	N#Cc1ccc2c(cnn2C[C@H]2CC[C@H](C(=O)N3OCC[C@H]3c3cnccn3)CC2)c1 [compound 218, trans-1-[[4-[(3S)-3-pyrazin-2-ylisoxazolidine-2-carbonyl]cyclohexyl]methyl]indazole-5-carbonitrile]	13
20	Cc1cncc([C@@H]2CCON2C(=O)[C@H]2CC[C@H](Cc3cc(C)c4ncnn4c3)CC2)c1 [compound 334, trans-[(3S)-3-(5-methylpyridin-3-yl)-1,2-oxazolidin-2-yl]-[4-[(8-methyl-[1,2,4]triazolo[1,5-a]pyridin-6-yl)methyl]cyclohexyl]methanone]	35
17	Cn1nccc1C[C@H]1CC[C@H](C(=O)N2OCC[C@H]2c2ccc(F)cc2)CC1 [compound 306, trans-[(3S)-3-(4-fluorophenyl)isoxazolidin-2-yl]-[4-[(2-methylpyrazol-3-yl)methyl]cyclohexyl]methanone]	25
14	Cc1cc(C[C@H]2CC[C@H](C(=O)N3OCC[C@H]3c3cnccn3)CC2)c(F)cn1 [compound 394, trans-[4-[(5-fluoro-2-methylpyridin-4-yl)methyl]cyclohexyl]-[(3S)-3-pyrazin-2-yl-1,2-oxazolidin-2-yl]methanone]	5
13	CNC(=O)c1ccc(F)c(C[C@H]2CC[C@H](C(=O)N3OCC[C@H]3c3cncc(C#N)c3)CC2)c1 [compound 176, trans-3-[[4-[(3S)-3-(5-cyano-3-pyridyl)isoxazolidine-2-carbonyl]cyclohexyl]methyl]-4-fluoro-N-methyl-benzamide]	15
17	Cc1nc2c(C)cc(C[C@H]3CC[C@H](C(=O)N4OCC[C@H]4c4cc(F)cc(C#N)c4)CC3)cn2n1 [compound 288, trans-3-[(3S)-2-[4-[(2,8-dimethyl-[1,2,4]triazolo[1,5-a]pyridin-6-yl)methyl]cyclohexanecarbonyl]isoxazolidin-3-yl]-5-fluoro-benzonitrile]	4
13	Cc1nn(C[C@H]2CC[C@H](C(=O)N3OCC[C@H]3c3cc(F)cc(F)c3)CC2)c2cc(C#N)c(F)cc12 [compound 84]	4
